43 compounds from ChEMBL document CHEMBL5308504, “Tm Shift (DSF) assay results for EUbOPEN Chemogenomics Library” (2023) can be followed below.

In assay [1] the target is Fibroblast growth factor receptor 3 (Homo sapiens) (UniProt P22607). The following applies: Compound concentration 20.0 uM, Protein concentration 2.0 uM, Result type QC Liability.
Description: Thermal Shift Assay. Domain: start/stop: P449-E759
The target in assay [2] is T1, Peregrin (Homo sapiens) (UniProt P55201).
T1 sequence (whole entry): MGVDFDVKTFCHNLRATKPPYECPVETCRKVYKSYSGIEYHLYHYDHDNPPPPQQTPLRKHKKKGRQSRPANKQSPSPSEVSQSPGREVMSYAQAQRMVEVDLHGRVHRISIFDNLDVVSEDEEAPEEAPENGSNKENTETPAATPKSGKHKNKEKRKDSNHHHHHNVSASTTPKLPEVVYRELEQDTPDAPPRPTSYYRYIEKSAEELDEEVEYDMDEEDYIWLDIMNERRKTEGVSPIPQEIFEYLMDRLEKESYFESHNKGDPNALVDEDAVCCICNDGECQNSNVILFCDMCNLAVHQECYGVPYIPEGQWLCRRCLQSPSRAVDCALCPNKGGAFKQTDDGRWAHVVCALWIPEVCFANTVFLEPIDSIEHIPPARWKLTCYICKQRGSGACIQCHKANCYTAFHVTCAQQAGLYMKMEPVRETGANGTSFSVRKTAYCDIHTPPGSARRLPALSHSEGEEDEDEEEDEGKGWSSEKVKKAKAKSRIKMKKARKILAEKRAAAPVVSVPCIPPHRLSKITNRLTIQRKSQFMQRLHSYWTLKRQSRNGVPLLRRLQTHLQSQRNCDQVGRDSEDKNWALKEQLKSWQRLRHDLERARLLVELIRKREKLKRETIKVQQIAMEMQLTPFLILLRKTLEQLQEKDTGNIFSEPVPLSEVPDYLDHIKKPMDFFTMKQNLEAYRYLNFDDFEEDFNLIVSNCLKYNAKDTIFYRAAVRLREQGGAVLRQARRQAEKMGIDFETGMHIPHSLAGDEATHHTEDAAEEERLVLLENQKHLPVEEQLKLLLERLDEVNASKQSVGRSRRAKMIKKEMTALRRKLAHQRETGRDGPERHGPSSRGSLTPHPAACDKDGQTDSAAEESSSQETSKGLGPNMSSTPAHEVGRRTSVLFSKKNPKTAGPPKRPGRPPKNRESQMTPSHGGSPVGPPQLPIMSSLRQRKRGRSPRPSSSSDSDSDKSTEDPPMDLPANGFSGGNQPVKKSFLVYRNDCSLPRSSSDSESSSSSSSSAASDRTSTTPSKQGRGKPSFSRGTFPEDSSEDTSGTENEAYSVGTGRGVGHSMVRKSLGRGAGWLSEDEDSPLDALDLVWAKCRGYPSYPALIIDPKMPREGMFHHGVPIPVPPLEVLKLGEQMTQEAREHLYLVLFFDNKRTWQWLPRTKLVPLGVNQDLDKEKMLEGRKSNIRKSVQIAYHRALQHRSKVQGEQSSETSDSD
The note with it: Compound concentration 20.0 uM, Protein concentration 2.0 uM, Result type QC Liability.

“And” between values parts separate entries of the source, which are not always exact repeats. Identical values can stand only once.

The ΔTm is the shift of the melting midpoint relative to a reference.

Sequence of Fibroblast growth factor receptor 3 (Homo sapiens) (P22607 23-806 limits assumed): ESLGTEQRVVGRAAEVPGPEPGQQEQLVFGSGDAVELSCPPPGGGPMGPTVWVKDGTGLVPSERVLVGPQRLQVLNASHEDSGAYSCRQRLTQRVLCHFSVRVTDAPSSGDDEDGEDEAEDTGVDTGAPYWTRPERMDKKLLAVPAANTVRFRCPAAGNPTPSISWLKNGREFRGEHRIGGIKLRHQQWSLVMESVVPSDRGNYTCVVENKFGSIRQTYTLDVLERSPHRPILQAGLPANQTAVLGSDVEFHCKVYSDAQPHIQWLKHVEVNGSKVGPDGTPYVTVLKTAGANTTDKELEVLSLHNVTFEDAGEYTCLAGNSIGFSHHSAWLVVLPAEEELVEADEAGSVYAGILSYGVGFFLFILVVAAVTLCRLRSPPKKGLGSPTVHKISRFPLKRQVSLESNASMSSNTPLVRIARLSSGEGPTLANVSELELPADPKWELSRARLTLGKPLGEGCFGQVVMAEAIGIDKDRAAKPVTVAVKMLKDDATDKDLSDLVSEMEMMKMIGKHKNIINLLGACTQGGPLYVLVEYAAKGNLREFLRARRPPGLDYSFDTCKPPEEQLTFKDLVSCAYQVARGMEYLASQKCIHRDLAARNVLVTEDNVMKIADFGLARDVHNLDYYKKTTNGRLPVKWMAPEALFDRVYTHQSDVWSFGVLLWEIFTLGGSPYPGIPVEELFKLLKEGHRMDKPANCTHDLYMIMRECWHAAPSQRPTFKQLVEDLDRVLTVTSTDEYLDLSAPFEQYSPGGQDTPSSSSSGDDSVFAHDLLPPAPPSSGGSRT

Regarding `CCCCC(C)(O)C/C=C/[C@H]1[C@H](O)CC(=O)[C@@H]1CCCCCCC(=O)O` (stereo partly specified), the figures for the ΔTm in assay [1] and in assay [2] were 0.43 °C and -1.2 °C, respectively.

Regarding `CC[C@H](Nc1c(C#N)c(-c2ccc(-c3cccc(C)c3F)cc2)nc2cnccc12)C(=O)O`, the ΔTm in assay [1] is -0.1 °C; in assay [2] it was -1.54 °C.

As for `O=C(O)/C=C/c1ccc(Cn2ccnc2)cc1`, the results for the ΔTm in assay [1] and in assay [2] were 0.54 °C and -2.72 °C, respectively.

Take `O=C(O)c1ccc2c(c1)nc(NCc1ccccc1)c1ncncc12`: the figures for the ΔTm in assay [1] and in assay [2] were 0.75 °C and -1.74 °C, respectively.

For `CC(C)[C@H](CO)Nc1nc(Nc2ccc(C(=O)O)c(Cl)c2)c2ncn(C(C)C)c2n1`, the ΔTm in assay [1] was 4.45 °C; in assay [2], 0.06 °C.

On to `CN1C(=O)c2c(nn(Cc3ccc(-c4cccc(F)n4)cc3)c2Nc2ccccc2)N2C1=N[C@@H]1CCC[C@@H]12`, for which the ΔTm in assay [1] was -0.44 °C; in assay [2], -3.07 °C.

Take `N=C(N)NCCC[C@@H](NC(=O)C(c1ccccc1)c1ccccc1)C(=O)NCc1ccc(CNC(N)=O)cc1`: the ΔTm is 0.46 °C in assay [1] and -2 °C in assay [2].

Turning to `COc1cc2ncnc(Nc3ccc4c(cnn4Cc4ccccc4)c3)c2cc1OC`, the ΔTm in assay [1] was 1.75 °C; in assay [2] it was -1.65 °C.

Consider `COc1cc(C(=O)NCCOCCOCCOCCC(=O)Nc2cccc3c2C(=O)N(C2CCC(=O)NC2=O)C3=O)ccc1Nc1ncc(C(F)(F)F)c(Oc2cccc3c2C(=O)CC3)n1` (stereo unspecified), for which the ΔTm in assay [1] is -3.01 °C; in assay [2] it was -2.32 °C.

On to `Cc1cc2c(-c3ccco3)cnc(N[C@@H]3CCN(C)C[C@H]3C(=O)NC3CCCCC3)c2[nH]c1=O`, for which the ΔTm was 0.65 °C in assay [1] and -0.68 °C in assay [2].

`Cc1nnc2n1-c1sc3c(c1C(c1ccccc1Cl)=NC2)CC(C(=O)N1CCOCC1)C3` (stereo unspecified): the ΔTm in assay [1] was 0.52 °C; in assay [2] it was -1.83 °C.

For the compound `COc1cc2nc([C@@H]3CCCS(=O)(=O)C3)n(C)c2cc1NC(=O)c1cccc(C(C)(F)F)n1`, the ΔTm in assay [1] was 0.66 °C; in assay [2], -2.41 °C.

For the compound `CN1CCN(c2ccc(Nc3ncc4cc5n(c4n3)C3(CCCCC3)CNC5=O)nc2)CC1`, the values for the ΔTm in assay [1] and in assay [2] were 0.83 °C and -1.56 °C, respectively.

`CC(=O)Nc1ncc(CN2CCC[C@H](Cc3cc(C)nc(C)c3)C2)s1`: the ΔTm in assay [1] came out at 1 °C; in assay [2] it was 0.17 °C.

Take `C[C@H](CCC(=O)O)[C@H]1CC[C@H]2[C@@H]3[C@@H](O)C[C@@H]4C[C@H](O)CC[C@]4(C)[C@H]3CC[C@]12C`: the figures for the thermal shift (ΔTm) in assay [1] and in assay [2] were 0.96 °C and -1.31 °C, respectively.

For `N#CN1CC[C@H](C(=O)Nc2nc3c(s2)CN(C(=O)CN=[N+]=[N-])CC3)C1`, the ΔTm was 1.09 °C in assay [1] and -1.51 °C in assay [2].

`Cc1c(NC(=O)c2ccc(C(C)(C)C)cc2)cccc1-c1cn(C)c(=O)c(Nc2ccc(C(=O)N3CCOCC3)cc2)n1`: the results for the ΔTm in assay [1] and in assay [2] were 0.54 °C and -4.33 °C, respectively.

`COC1(C#Cc2ccc(Cl)c(-c3ncc4c(n3)-c3sc(NC(C)=O)nc3CC4)c2)CCN(C)CC1`: the ΔTm in assay [1] was 0.77 °C; in assay [2] it was -1.7 °C.

On to `CCC(=O)N[C@H]1CC[C@@H](C(=O)N(C)c2ccc(-c3nc4ccccc4o3)cc2)C1`, for which the ΔTm was 0.8 °C in assay [1] and -2.71 °C in assay [2].

In the case of `Cc1cc2nc(N3CCC(C(=O)NC4CCCC4)CC3)n(C(C)C)c2cc1C`, the ΔTm in assay [1] is 0.35 °C; in assay [2], -3.41 °C.

For the compound `CC(=O)Nc1cccc(-n2c(=O)n(C3CC3)c(=O)c3c(Nc4ccc(I)cc4F)n(C)c(=O)c(C)c32)c1`, the ΔTm was 0.38 °C in assay [1] and -0.16 °C in assay [2].

With `O=C(O)CCC/C=C\C[C@@H]1[C@@H](/C=C/[C@@H](O)COc2cccc(C(F)(F)F)c2)[C@H](O)C[C@@H]1O`, the ΔTm was 0.51 °C in assay [1] and -2.28 °C in assay [2].

Turning to `CS(=O)(=O)c1ccc(-c2cnc(N)c(C(=O)Nc3ccccc3)n2)cc1`, the ΔTm in assay [1] was 1.51 °C; in assay [2], -1.36 °C.

With `CC(C)c1nc2c(c3c1[C@H](c1ccc(C(F)(F)F)cc1)OC31CCOCC1)[C@H](O)CC(C)(C)C2`, the values for the ΔTm in assay [1] and in assay [2] were 0.52 °C and -3.09 °C, respectively.

Consider `N#C/C(=C\c1ccc(O)c(O)c1)C(=O)OCCc1cccs1`, for which the ΔTm in assay [1] was 1.51 °C; in assay [2], -0.27 °C.

Turning to `N=C(N)Nc1cc(C2CCNCC2)cc(C(F)(F)F)c1`, the results for the ΔTm in assay [1] and in assay [2] were 0.42 °C and -2.37 °C, respectively.

In the case of `CC[C@@H](Nc1c(C#N)c(-c2ccc(-c3cccc(C)c3F)cc2)nc2cnccc12)C(=O)O`, the ΔTm in assay [1] was 0 °C; in assay [2], -0.66 °C.

Consider `Cc1ccc(-c2cn3nc(C(=O)NC4(c5ccc(F)cc5)CN(C)C4)c(C(C)C)c3c(=O)[nH]2)cc1C`, for which the ΔTm in assay [1] is 0.62 °C; in assay [2] it was -2.45 °C.

For `CCS(=O)(=O)c1cc2cc(C[C@@](O)(CC(C)(C)c3ccc(F)cc3C(N)=O)C(F)(F)F)[nH]c2cn1`, the ΔTm is 0.69 °C and 0.88 °C in assay [1]; -2.1 °C and -0.15 °C in assay [2].

With `CCc1ccccc1C(=O)Nc1n[nH]c2c(C)c(F)c(C3C(C#N)=C(C)N(C)C(C)=C3C#N)cc12`, the shift in melting temperature (ΔTm) is 2.59 °C in assay [1] and -1.74 °C in assay [2].

For `C[C@@H]1CC(=O)N(C2CC2)N=C1c1ccc(NC(=O)N2Cc3ccncc3C2)cc1`, the ΔTm in assay [1] is 0.58 °C; in assay [2], -2.03 °C.

In the case of `CNCc1ccc(-c2cc(-c3nc(-c4ccc(S(=O)(=O)C(C)C)cc4)cnc3N)on2)cc1`, the ΔTm in assay [1] was -1.35 °C; in assay [2], -0.8 °C.

Regarding `O=C(N[C@H]1CCC[C@H](CO)C1)C1CCN(c2nc3cc(Cl)c(-c4ccc(Cl)cc4)cc3o2)CC1`, the ΔTm in assay [1] is -8.62 °C; in assay [2], -0.52 °C.

As for `CNC(=O)c1nnc(NC(=O)C2CC2)cc1Nc1cccc(-c2ncn(C)n2)c1OC`, the ΔTm in assay [1] (tested as the 2H-labelled form) was 1.05 °C; in assay [2] (tested as the 2H-labelled form) it was -1.46 °C.

On to `COc1ccc2c(O[C@@H]3C[C@H]4C(=O)N[C@]5(C(=O)O)CC5/C=C\CCCCC[C@H](NC(=O)OC5CCCC5)C(=O)N4C3)cc(-c3csc(NC(=O)C(C)C)n3)nc2c1C` (stereo partly specified), for which the figures for the ΔTm in assay [1] and in assay [2] were 1.07 °C [middle of 4 runs] and -1.17 °C [middle of 4 runs], respectively.

For the compound `CN1C(=O)c2ccccc2N(C)c2nc(Nc3cnn(C4CCNCC4)c3)ncc21`, the ΔTm was 6.58 °C in assay [1] and -0.9 °C in assay [2].

Take `Fc1ccc(-c2nc(-c3c(F)cccc3F)[nH]c2-c2ccncc2)cc1`: the ΔTm in assay [1] is 2.21 °C; in assay [2], 0.63 °C.

On to `CNc1nc(-c2ccc3c(N)n[nH]c3c2)cc(N2C[C@@H](C(=O)NC3CCCCC3)CC[C@H]2C)n1`, for which the ΔTm is 2.13 °C in assay [1] and -2.05 °C in assay [2].

As to `COc1ccccc1S(=O)(=O)Nc1ccc2c(c1)CN(C)C(=O)N2`, the ΔTm in assay [1] was 0.61 °C; in assay [2] it was 1.73 °C.

For `C[C@@H]1CCNC(=O)c2cc3ccc(C(=O)Nc4nc5ccccc5n4CCCN(C)C)cc3n21`, the ΔTm in assay [1] was 2.76 °C; in assay [2], -2.35 °C.

On to `CC[C@H](NC(=O)[C@H](C)NC)C(=O)N1C[C@@H](O)C[C@H]1Cc1c(-c2[nH]c3cc(F)ccc3c2C[C@@H]2C[C@H](O)CN2C(=O)[C@H](CC)NC(=O)[C@H](C)NC)[nH]c2cc(F)ccc12`, for which the ΔTm in assay [1] was 0.75 °C; in assay [2], -1.75 °C.

Regarding `CCCCOc1c(C(=O)c2c(F)cc(C)cc2F)c[nH]c2nncc1-2`, the results for the ΔTm in assay [1] and in assay [2] were 0.71 °C and -1.13 °C, respectively.

For the compound `CNc1oc(-c2cccc3ccccc23)nc1C#N`, the ΔTm in assay [1] is 0.61 °C; in assay [2] it was -2.17 °C.
